Laboratory results as given in the NIST ThermoML archive (doi:10.1021/je200226z).
± gives the expanded uncertainty stated by the source.

Assay: mn = molality of the nth substance listed, in mol/kg
Conditions: 298.15 K, 101 kPa, Liquid, Westphal Balance

| mass density (m1 = 0.05) | mass density (m1 = 0.1) | mass density (m1 = 0.15) | mass density (m1 = 0.25) | mass density (m1 = 0.5) | mass density (m1 = 0.75) | mass density (m1 = 1) | mass density (m1 = 0.02) | mass density (m1 = 0.06) | mass density (m1 = 0.2) | Structure (SMILES) |
| --- | --- | --- | --- | --- | --- | --- | --- | --- | --- | --- |
| 998.1 ± 0.14 kg/m3 | 999 ± 0.14 kg/m3 | 999.8 ± 0.14 kg/m3 | 1001.3 ± 0.14 kg/m3 | 1004.8 ± 0.14 kg/m3 | 1007.8 ± 0.13 kg/m3 | 1010.3 ± 0.12 kg/m3 | – | – | – | C=CCn1cc[n+](C)c1.[Cl-] [1-allyl-3-methylimidazolium chloride] + O |
| – | 1009.9 ± 0.14 kg/m3 | 1016.06 ± 0.14 kg/m3 | 1027.95 ± 0.14 kg/m3 | – | – | – | 999.72 ± 0.14 kg/m3 | 1004.87 ± 0.14 kg/m3 | 1022.12 ± 0.14 kg/m3 | OC[C@H]1O[C@@](CO)(O[C@H]2O[C@H](CO)[C@@H](O)[C@H](O)[C@H]2O)[C@@H](O)[C@@H]1O [D-sucrose] + O |
